# Experiments:
# [1] = target: Mitogen-activated protein kinase kinase kinase 15 (Homo sapiens) (UniProt Q6ZN16); assay: Binding affinity to wild-type human partial length MAP3K15 (T625 to L932 residues) expressed in mammalian expression system assessed as residual binding level at 1 uM by Kinomescan method relative to control
# [2] = tested on: Phosphatidylinositol 4,5-bisphosphate 3-kinase catalytic subunit alpha isoform (Homo sapiens), P42336 [I800L]; assay: Binding affinity to human partial length PIK3CA I800L mutant (R108 to N1068 residues) expressed in mammalian expression system assessed as residual binding level at 1 uM by Kinomescan method relative to control
# [3] = target: Cyclin-dependent kinase 11B (Homo sapiens) (UniProt P21127); assay: Binding affinity to wild-type human partial length CDC2L1 (P353 to G692 residues) expressed in bacterial expression system assessed as residual binding level at 1 uM by Kinomescan method relative to control
# [4] = target: Dual specificity mitogen-activated protein kinase kinase 1 (Homo sapiens) (UniProt Q02750); assay: Binding affinity to wild-type human full length MEK1 (M1 to V393 residues) expressed in mammalian expression system assessed as residual binding level at 1 uM by Kinomescan method relative to control
# [5] = tested on: Receptor-type tyrosine-protein kinase FLT3 (Homo sapiens), P36888 [D835Y]; assay: Binding affinity to human partial length FLT3 D835Y mutant (Q580 to Y969 residues) expressed in bacterial expression system assessed as residual binding level at 1 uM by Kinomescan method relative to control
# [6] = target: Protein kinase C eta type (Homo sapiens) (UniProt P24723); assay: Binding affinity to wild-type human partial length PRKCH (S324 to P683 residues) expressed in bacterial expression system assessed as residual binding level at 1 uM by Kinomescan method relative to control
# [7] = target: Serine/threonine-protein kinase VRK2 (Homo sapiens) (UniProt Q86Y07); assay: Binding affinity to wild-type human partial length VRK2 (M1 to T336 residues) expressed in mammalian expression system assessed as residual binding level at 1 uM by Kinomescan method relative to control
# [8] = target: Dual specificity mitogen-activated protein kinase kinase 6 (Homo sapiens) (UniProt P52564); assay: Binding affinity to wild-type human partial length MEK6 (K36 to D334 residues) expressed in bacterial expression system assessed as residual binding level at 1 uM by Kinomescan method relative to control
# [9] = target: Glycogen synthase kinase-3 alpha (Homo sapiens) (UniProt P49840); assay: Binding affinity to wild-type human full length GSK3A (M1 to S483 residues) expressed in bacterial expression system assessed as residual binding level at 1 uM by Kinomescan method relative to control
# [10] = target: Inhibitor of nuclear factor kappa-B kinase subunit alpha (Homo sapiens) (UniProt O15111); assay: Binding affinity to wild-type human full length IKK-alpha (M1 to E745 residues) expressed in mammalian expression system assessed as residual binding level at 1 uM by Kinomescan method relative to control
# [11] = target: Tyrosine-protein kinase Mer (Homo sapiens) (UniProt Q12866); assay: Binding affinity to wild-type human partial length MERTK (R557 to L884 residues) expressed in bacterial expression system assessed as residual binding level at 1 uM by Kinomescan method relative to control
# [12] = target: Bone morphogenetic protein receptor type-1A (Homo sapiens) (UniProt P36894); assay: Binding affinity to wild-type human partial length BMPR1A (Q214 to I532 residues) expressed in bacterial expression system assessed as residual binding level at 1 uM by Kinomescan method relative to control
# [13] = target: Serine/threonine-protein kinase Nek11 (Homo sapiens) (UniProt Q8NG66); assay: Binding affinity to wild-type human partial length NEK11 (M1 to E313 residues) expressed in mammalian expression system assessed as residual binding level at 1 uM by Kinomescan method relative to control
# [14] = target: Ribosomal protein S6 kinase alpha-6 (Homo sapiens) (UniProt Q9UK32); assay: Binding affinity to wild-type human partial length N-terminal RSK4 kinase domain 1 (M1 to E397 residues) expressed in mammalian expression system assessed as residual binding level at 1 uM by Kinomescan method relative to control
# [15] = target: Serine/threonine-protein kinase NIM1 (Homo sapiens) (UniProt Q8IY84); assay: Binding affinity to wild-type human partial length NIM1 (Q44 to N355 residues) expressed in mammalian expression system assessed as residual binding level at 1 uM by Kinomescan method relative to control
# [16] = target: Ephrin type-B receptor 4 (Homo sapiens) (UniProt P54760); assay: Binding affinity to wild-type human partial length EPHB4 (H585 to G892 residues) expressed in bacterial expression system assessed as residual binding level at 1 uM by Kinomescan method relative to control
# [17] = target: Mitogen-activated protein kinase 11 (Homo sapiens) (UniProt Q15759); assay: Binding affinity to wild-type human full length p38-beta (M1 to Q364 residues) expressed in bacterial expression system assessed as residual binding level at 1 uM by Kinomescan method relative to control
# [18] = target: Mitogen-activated protein kinase kinase kinase 11 (Homo sapiens) (UniProt Q16584); assay: Binding affinity to wild-type human partial length MLK3 (I77 to W399 residues) expressed in bacterial expression system assessed as residual binding level at 1 uM by Kinomescan method relative to control
# [19] = target: Mitogen-activated protein kinase 12 (Homo sapiens) (UniProt P53778); assay: Binding affinity to wild-type human full length p38-gamma (M1 to L367 residues) expressed in mammalian expression system assessed as residual binding level at 1 uM by Kinomescan method relative to control
# [20] = target: Serine/threonine-protein kinase/endoribonuclease IRE1 (Homo sapiens) (UniProt O75460); assay: Binding affinity to wild-type human partial length ERN1 (S551 to E852 residues) expressed in mammalian expression system assessed as residual binding level at 1 uM by Kinomescan method relative to control
# [21] = target: Cyclin-dependent kinase 3 (Homo sapiens) (UniProt Q00526); assay: Binding affinity to wild-type human full length CDK3 (M1 to H305 residues) expressed in bacterial expression system assessed as residual binding level at 1 uM by Kinomescan method relative to control
# [22] = target: Cyclin-dependent kinase 2 (Homo sapiens) (UniProt P24941); assay: Binding affinity to wild-type human full length CDK2 (M1 to L298 residues) expressed in bacterial expression system assessed as residual binding level at 1 uM by Kinomescan method relative to control
# [23] = target: Death-associated protein kinase 2 (Homo sapiens) (UniProt Q9UIK4); assay: Binding affinity to wild-type human full length DAPK2 (M1 to S370 residues) expressed in bacterial expression system assessed as residual binding level at 1 uM by Kinomescan method relative to control
# [24] = target: 5'-AMP-activated protein kinase catalytic subunit alpha-2 (Homo sapiens) (UniProt P54646); assay: Binding affinity to wild-type human partial length AMPK alpha2 (M1 to E306 residues) expressed in bacterial expression system assessed as residual binding level at 1 uM by Kinomescan method relative to control
# Chain of Serine/threonine-protein kinase Nek11 (Homo sapiens) (Q8NG66 whole entry, the tested form may be a part): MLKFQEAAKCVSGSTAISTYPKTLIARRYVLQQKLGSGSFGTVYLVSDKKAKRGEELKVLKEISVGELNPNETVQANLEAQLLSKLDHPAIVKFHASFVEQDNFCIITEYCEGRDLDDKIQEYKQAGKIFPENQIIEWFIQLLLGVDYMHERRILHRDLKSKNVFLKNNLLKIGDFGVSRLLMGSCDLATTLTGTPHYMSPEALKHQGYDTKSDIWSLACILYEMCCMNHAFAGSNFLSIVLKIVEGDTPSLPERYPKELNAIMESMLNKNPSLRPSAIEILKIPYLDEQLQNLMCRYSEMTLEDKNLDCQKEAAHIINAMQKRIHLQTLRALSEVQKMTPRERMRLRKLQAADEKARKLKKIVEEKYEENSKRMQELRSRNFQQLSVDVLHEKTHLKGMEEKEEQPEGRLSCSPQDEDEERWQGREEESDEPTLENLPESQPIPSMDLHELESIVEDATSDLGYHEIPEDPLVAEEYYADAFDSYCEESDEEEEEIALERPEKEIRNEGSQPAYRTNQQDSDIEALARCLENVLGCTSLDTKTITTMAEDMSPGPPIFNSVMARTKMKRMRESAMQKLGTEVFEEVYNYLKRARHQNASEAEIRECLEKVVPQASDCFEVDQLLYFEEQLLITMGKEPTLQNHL
# Chain of Dual specificity mitogen-activated protein kinase kinase 1 (Homo sapiens) (Q02750 whole entry, the tested form may be a part): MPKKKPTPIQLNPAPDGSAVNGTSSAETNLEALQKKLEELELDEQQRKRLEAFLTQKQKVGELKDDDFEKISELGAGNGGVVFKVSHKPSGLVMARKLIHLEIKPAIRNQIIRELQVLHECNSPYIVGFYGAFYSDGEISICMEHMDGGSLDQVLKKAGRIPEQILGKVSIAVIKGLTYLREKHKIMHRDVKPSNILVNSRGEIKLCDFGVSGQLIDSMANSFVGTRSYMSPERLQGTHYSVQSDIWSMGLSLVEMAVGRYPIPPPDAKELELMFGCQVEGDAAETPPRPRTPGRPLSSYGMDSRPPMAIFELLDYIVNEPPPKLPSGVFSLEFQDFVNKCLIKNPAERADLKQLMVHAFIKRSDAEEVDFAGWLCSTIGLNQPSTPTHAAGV
# Chain of Protein kinase C eta type (Homo sapiens) (P24723 whole entry, the tested form may be a part): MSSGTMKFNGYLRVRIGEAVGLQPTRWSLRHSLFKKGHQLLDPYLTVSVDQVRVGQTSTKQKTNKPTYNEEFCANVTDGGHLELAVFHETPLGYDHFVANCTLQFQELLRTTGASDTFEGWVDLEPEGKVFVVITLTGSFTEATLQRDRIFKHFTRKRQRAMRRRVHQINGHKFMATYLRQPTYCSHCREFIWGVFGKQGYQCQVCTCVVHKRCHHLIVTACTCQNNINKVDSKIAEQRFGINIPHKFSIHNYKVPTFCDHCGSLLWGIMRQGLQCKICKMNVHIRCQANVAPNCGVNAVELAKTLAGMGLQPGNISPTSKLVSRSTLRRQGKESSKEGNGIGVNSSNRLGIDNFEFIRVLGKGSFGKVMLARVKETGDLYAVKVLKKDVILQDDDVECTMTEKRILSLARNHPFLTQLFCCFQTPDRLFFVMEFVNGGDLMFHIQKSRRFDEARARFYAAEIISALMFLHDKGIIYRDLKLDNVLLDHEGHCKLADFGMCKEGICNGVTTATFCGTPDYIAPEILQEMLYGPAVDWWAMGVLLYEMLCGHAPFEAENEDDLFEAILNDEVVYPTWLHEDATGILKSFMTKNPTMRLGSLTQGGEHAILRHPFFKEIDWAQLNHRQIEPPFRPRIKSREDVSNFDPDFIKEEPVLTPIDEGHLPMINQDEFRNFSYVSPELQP
# Chain of Bone morphogenetic protein receptor type-1A (Homo sapiens) (P36894 whole entry, the tested form may be a part): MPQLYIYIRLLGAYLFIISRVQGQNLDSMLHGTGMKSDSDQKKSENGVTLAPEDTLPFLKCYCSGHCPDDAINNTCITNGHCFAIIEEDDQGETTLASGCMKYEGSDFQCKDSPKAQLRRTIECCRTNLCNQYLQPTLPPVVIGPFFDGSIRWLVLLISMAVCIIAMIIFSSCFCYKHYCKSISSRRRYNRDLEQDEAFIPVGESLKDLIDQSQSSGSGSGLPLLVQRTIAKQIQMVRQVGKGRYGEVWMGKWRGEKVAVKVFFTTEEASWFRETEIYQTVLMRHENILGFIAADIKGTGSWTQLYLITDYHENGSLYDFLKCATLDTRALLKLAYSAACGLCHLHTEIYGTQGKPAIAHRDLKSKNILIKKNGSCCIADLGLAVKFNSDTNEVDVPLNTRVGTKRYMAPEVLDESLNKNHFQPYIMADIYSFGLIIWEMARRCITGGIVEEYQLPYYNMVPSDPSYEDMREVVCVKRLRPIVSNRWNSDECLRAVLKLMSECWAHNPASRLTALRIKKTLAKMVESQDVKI
# Chain of Serine/threonine-protein kinase NIM1 (Homo sapiens) (Q8IY84 whole entry, the tested form may be a part): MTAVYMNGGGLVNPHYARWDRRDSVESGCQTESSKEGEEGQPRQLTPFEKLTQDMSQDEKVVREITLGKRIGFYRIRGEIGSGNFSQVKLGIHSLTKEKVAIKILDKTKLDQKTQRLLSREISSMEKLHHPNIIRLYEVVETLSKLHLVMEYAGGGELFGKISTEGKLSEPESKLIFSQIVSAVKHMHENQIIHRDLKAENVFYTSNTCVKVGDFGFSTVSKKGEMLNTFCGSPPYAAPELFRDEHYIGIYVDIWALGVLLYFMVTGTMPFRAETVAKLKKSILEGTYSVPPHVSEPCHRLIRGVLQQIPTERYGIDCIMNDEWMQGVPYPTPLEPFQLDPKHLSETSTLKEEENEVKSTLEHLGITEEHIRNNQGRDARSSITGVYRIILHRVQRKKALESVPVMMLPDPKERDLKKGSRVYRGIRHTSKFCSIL
# Chain of Cyclin-dependent kinase 11B (Homo sapiens) (P21127 whole entry, the tested form may be a part): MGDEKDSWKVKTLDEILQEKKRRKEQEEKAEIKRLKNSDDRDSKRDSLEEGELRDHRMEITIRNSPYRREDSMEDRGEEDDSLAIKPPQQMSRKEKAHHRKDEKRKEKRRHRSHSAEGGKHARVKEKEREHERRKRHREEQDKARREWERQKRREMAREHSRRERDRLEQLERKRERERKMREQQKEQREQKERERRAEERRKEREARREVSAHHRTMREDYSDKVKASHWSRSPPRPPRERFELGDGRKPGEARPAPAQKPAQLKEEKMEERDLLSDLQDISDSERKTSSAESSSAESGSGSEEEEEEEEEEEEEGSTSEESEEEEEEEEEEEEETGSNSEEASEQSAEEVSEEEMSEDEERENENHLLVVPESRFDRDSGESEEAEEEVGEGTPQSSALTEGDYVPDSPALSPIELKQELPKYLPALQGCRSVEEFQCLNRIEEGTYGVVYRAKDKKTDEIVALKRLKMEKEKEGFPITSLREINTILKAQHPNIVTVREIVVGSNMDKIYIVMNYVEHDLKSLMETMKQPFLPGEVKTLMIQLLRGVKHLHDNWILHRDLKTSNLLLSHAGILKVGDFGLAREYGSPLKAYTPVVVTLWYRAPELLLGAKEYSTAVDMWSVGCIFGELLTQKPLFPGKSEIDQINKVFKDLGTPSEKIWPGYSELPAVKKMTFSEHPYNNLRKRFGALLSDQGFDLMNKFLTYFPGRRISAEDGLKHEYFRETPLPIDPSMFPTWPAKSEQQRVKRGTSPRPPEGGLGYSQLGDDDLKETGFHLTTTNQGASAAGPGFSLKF
# Chain of Serine/threonine-protein kinase/endoribonuclease IRE1 (Homo sapiens) (O75460 19-977 limits assumed): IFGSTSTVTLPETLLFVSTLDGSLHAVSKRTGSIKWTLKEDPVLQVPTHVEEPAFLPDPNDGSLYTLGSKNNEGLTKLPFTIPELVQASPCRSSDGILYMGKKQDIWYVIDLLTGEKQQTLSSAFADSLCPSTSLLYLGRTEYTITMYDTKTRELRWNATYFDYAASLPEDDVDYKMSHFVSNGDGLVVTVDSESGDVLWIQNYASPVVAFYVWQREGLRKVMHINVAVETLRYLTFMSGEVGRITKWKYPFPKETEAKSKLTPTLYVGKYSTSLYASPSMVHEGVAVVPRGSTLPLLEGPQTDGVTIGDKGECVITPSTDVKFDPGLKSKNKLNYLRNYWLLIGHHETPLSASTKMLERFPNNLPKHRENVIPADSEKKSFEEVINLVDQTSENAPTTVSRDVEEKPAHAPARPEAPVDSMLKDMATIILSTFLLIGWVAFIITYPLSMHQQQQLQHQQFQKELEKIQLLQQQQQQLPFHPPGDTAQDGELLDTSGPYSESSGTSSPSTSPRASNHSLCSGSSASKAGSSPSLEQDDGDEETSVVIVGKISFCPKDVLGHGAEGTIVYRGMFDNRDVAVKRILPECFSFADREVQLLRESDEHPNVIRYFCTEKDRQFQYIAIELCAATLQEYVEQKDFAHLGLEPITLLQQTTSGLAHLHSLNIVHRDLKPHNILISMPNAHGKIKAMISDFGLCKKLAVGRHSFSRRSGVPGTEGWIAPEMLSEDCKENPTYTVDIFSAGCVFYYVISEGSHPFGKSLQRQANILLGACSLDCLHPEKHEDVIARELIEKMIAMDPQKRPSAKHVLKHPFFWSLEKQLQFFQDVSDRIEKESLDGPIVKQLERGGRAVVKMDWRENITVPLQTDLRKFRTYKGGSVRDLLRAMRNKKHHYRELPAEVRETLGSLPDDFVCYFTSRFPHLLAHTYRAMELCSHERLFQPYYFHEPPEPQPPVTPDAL
# Chain of Death-associated protein kinase 2 (Homo sapiens) (Q9UIK4 whole entry, looked up, the tested form may be a part): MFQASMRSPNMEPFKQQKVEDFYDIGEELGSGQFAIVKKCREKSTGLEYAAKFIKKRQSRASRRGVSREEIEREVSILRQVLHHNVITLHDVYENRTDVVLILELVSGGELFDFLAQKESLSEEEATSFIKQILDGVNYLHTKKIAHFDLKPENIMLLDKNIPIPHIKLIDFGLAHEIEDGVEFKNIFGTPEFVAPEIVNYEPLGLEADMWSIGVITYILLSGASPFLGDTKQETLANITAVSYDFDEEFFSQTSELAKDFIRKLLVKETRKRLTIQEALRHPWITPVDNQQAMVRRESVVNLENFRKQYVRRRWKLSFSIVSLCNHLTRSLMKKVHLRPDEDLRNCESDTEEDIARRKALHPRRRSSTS
smiles,measurement,setting,value
CC(C)Nc1sc(C(=O)c2ccc(Cl)s2)c(N)c1C#N,Activity,[1],100%
same,Activity,[2],73%
same,Activity,[3],100%
same,Activity,[4],96%
same,Activity,[5],59%
same,Activity,[6],84%
same,Activity,[7],100%
same,Activity,[8],100%
same,Activity,[9],100%
same,Activity,[10],100%
same,Activity,[11],100%
same,Activity,[12],100%
same,Activity,[13],97%
same,Activity,[14],81%
same,Activity,[15],97%
same,Activity,[16],93%
same,Activity,[17],83%
same,Activity,[18],100%
same,Activity,[19],100%
same,Activity,[20],100%
same,Activity,[21],89%
same,Activity,[22],66%
same,Activity,[23],66%
same,Activity,[24],100%

# Reference: ChEMBL document CHEMBL4330132, “5-Keto-3-cyano-2,4-diaminothiophenes as selective maternal embryonic leucine zipper kinase inhibitors” (Bioorg Med Chem Lett, 2019)
